Assay results published in PubChem BioAssay (NCI).
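Protocol summary: plate cells (96-well), add compound at 5 concentrations, incubate 48 h, interpolate endpoints linearly. GI50 marks 50% less growth. TGI is the concentration that stops growth completely.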

Legend:
Assay in all cases: NCI tumour cell line growth inhibition, 48 h
A498 renal = test system: A498 renal
EKVX NSCLC = test system: EKVX NSCLC
MCF7 breast = test system: MCF7 breast
NCI/ADR-RES ovarian = test system: NCI/ADR-RES ovarian
OVCAR-4 ovarian = test system: OVCAR-4 ovarian
SNB-19 CNS = test system: SNB-19 CNS
SW-620 colon = test system: SW-620 colon
UACC-62 melanoma = test system: UACC-62 melanoma

Row | Structure (SMILES) | GI50 (A498 renal) [µM] | TGI (A498 renal) [µM] | GI50 (EKVX NSCLC) [µM] | TGI (EKVX NSCLC) [µM] | GI50 (MCF7 breast) [µM] | TGI (MCF7 breast) [µM] | GI50 (NCI/ADR-RES ovarian) [µM] | TGI (NCI/ADR-RES ovarian) [µM] | GI50 (OVCAR-4 ovarian) [µM] | TGI (OVCAR-4 ovarian) [µM] | GI50 (SNB-19 CNS) [µM] | TGI (SNB-19 CNS) [µM] | GI50 (SW-620 colon) [µM] | TGI (SW-620 colon) [µM] | GI50 (UACC-62 melanoma) [µM] | TGI (UACC-62 melanoma) [µM]
1 | CC(=O)O[C@H]1[C@@H]2OC(=O)C(CSc3ccccc3)[C@@H]2C[C@H]2O[C@]2(C)CC/C=C(\C)CCC[C@@H]1C (stereo not given in full) | 2.17 | 6.37 | 3.27 | 12.9 | 2.62 | 12 | 2.99 | 32 | 2.98 | 10.9 | 11.9 | 62.8 | 2.22 | 4.92 | 4.65 | 14.8
2 | Cc1cc(N2CCOCC2)nc(N(CCCNc2ccnc3cc(Cl)ccc23)Cc2ccco2)n1 | 2.2 | 6.04 | 3.73 | 16.7 | 2.42 | 12.9 | 1.95 | 6.66 | 3.07 | 15.2 | 3.81 | 15.4 | 2.73 | 11.5 | 3.49 | 12.5
3 | CC([C@H]1CCC2C3CCC4C[C@@H](N)CC[C@]4(C)C3CC[C@@]21C)N(C)C (stereo not given in full) | 9.69 | 25.9 | 13.8 | 54.8 | 4.17 | 18.1 | 15.1 | 48.7 | 9.12 | 38.9 | 15.8 | 32.7 | 2.74 | 7.73 | 2.36 | 5.67
4 | C=C(CO)[C@@H]1CC[C@]2(COC3CCCCO3)CC[C@]3(C)[C@H](CC[C@@H]4[C@@]5(C)C=C(C=O)C(=O)C(C)(C)[C@@H]5CC[C@]43C)[C@@H]12 (stereo not given in full) | 0.234 | 0.938 | 0.259 | 0.856 | 0.479 | 1.97 | 0.479 | 1.8 | 0.298 | 0.979 | 0.414 | 1.44 | 0.267 | 0.832 | 0.177 | 0.386
5 | CN(CC(=O)Nc1nc2ccccc2[nH]1)S(=O)(=O)c1ccc(Cl)cc1 | > 100 | > 100 | 52.3 | > 100 | > 100 | > 100 | > 100 | > 100 | > 100 | > 100 | > 100 | > 100 | > 100 | > 100 | > 100 | > 100
6 | OCCNc1nc(Nc2ccc(Cl)c(Cl)c2)nc2ccccc12 | 1.5 | 13.9 |  |  | 1.96 | 14.6 | 4.91 | 20 | 4.64 | 18.4 | 5.02 | 18.6 | 4.02 | 16.2 | 10.9 | 23.5
7 | Cc1ccc(C(=O)/C(=C\c2ccc([N+](=O)[O-])cc2)S(=O)Cc2ccc(Cl)cc2)cc1 (stereo not given) | 2.61 | 7.63 | 1.88 | 4.02 | 1.38 | 3.68 | 2.72 | 7.97 | 1.85 | 3.85 | 1.83 | 3.68 | 1.59 | 3.44 | 1.65 | 3.22
